# Reference: patent publication US8367642B2, “Methods of preventing or treating diseases and conditions using complex carbohydrates” (Dermal Research Laboratories, Inc., priority 2000, dated 2013)
# Key:
# [1] = system: lick granulomas; test: Lick granuloma of a Labrador retriever (Example 12); format: in vivo, dog; details: cortisone injections and hydrocortisone creams
# Protocol: An eleven year old Labrador retriever had suffered from lick granulomas for at least 3 years. […] This dog's granuloma was located on the left hind leg above the pasturn. The swelling around the leg measured 8 inches in diameter and the open wound measured 4×3 inches. […] This dog was injected with 10 mg of sodium hyaluronate having a molecular weight ranging from 30,000 to 400,000 (1.0 mL intramuscularly—equivalent to 10 mg). The open wound began to heal. This injection was followed up with topical application of a low molecular weight hyaluronic acid prepared by making a 1% (wt/vol) solution of hyaluronic acid (Medex Ltd) containing 1% Wintergreen Oil (Loranne Oil), 1% Spearmint Oil (Loranne Oil) and 0.5% Peppermint Oil (Loranne Oil). The topical formulation was applied at least two times per day. […] The dog has not licked this area since treatment began. Therefore, the complex carbohydrates of the present invention are able to successfully treat lick granulomas (a previously untreatable condition of dogs) and eliminate the cause of the licking.
# [2] = system: chronic eczema; test: Chronic eczema with yeast infection (Example 14); set-up: species or system human; details: in vivo
# Text: A person suffered from chronic eczema—scaly and red areas on their neck and arms. They had also been diagnosed with a yeast infection associated with the eczema. […] They initially used a topical preparation prepared according to this invention. This contained a mixture of low and high molecular weight sodium hyaluronate (prepared as in EXAMPLE 1) mixed with 1% Wintergreen Oil, 1% Spearmint Oil, and 0.5% Peppermint Oil. They applied it topically for four weeks. […] However, there was still itching and redness. They then began to orally take the 1% mixture, of low and high molecular weight sodium hyaluronate described in example 1. They reported that within 2 weeks all signs of the eczema had disappeared, the itching was gone and they felt better than they had felt for years. The oral dose required was 5 mg TID for this 91 pound person. Therefore, the dose was […].
# [3] = system: ADHD; test: child with ADHD, behaviour scores (Example 7, FIG. 2); format: in vivo, human; details: prescribed daily, earlier treatment
# Text: The subject child was a person who has suffered with ADHD all their life. […] Additionally, their behavior was such that they could not socialize with other children or with adults. When in contact with other children they were unable to play, often became angered and caused physical harm to others. They had been under treatment by several physicians, psychologists and allergists all their life but none were able to help their condition. The allergists determined that they had allergies to most all foods, dust, molds, soaps and just about everything in their environment. At one time they were prescribed Ritalin daily. […]
# This child attended a special school in which their Teachers reported their daily activity to their parents so that they could try to monitor their eating habits. […] Their response was monitored by using the numerical score provided by their teachers and averaging it with a numerical score of their behavior at home provided by their parents. […] Their parents have commented that they have awakened in the morning and is happy, cheerful and cooperative in getting ready for school. […] If their behavior was belligerent, bossy, angry or non-cooperative they were scored as a −40 for the day. If their reactions to foods or environmental stimuli produced such a response it was recorded as a −40. If they responded as a normal person, the score was recorded as 0. […]
# [4] = system: attention deficit disorder (ADD); test: Adult with attention deficit disorder, daily response (Example 5, FIG. 1); format: in vivo, human; details: earlier treatment
# Text: The subject adult was a person who had suffered all their life with attention deficit disorder (ADD).
# They never knew what their problem was until recently when they were diagnosed. They described their childhood as unfocused and explained that they felt as though they were in a constant mental fog—unable to think clearly, or for that matter, unable to focus on a thought at all. […] Exposure to only a few minutes in a moldy room caused this individual to become dazed, unable to think, focus or even stay awake. They had only been able to do menial jobs. They spent most of their time staring out the window with no thoughts in their mind and, even if they tried, could not focus on a thought or task. They described themself as believing all their life that they were just stupid and unable to learn. They had been to multiple physicians and psychiatrists seeking treatment with no success. They had taken Ritalin with little relief. It allowed them to function partially but they were always tired and unable to focus on anything but the simplest of tasks. They agreed to take the oral sodium hyaluronate product and their family would report how they reacted. […]
# FIG. 1 plots the response of this patient while taking the compositions of the present invention. […] If there were no significant negative or positive responses during a day, the reaction rate was recorded as 0. […]
# [5] = system: Attention Deficit Hyperactivity Disorder (ADHD) complicated by Turret's Syndrome; test: Treatment of a child with ADHD complicated by Turret's Syndrome (Example 2); format: in vivo, human; details: earlier treatment, discontinued 1.5 year before
# Protocol: This treatment was not complicated by concurrent treatment with drugs such as Ritalin as their parents were adverse to using this medication. Therefore, any response observed was related to the use of the complex carbohydrates of the present invention. They took 10 mg in the morning and 10 mg in the evening, using the solution as a mouthwash (holding it in their mouth for about 10 to 20 seconds and then swallowing). […] However, within 15 minutes of their receiving the missing dose, they became calm and returned to normal. This child has remained totally under control for 6 months. This had never been observed before, even when they were taking Ritalin. […] It has been concluded that a disease typically thought to be related to a nervous disorder or to allergies was treatable by the complex carbohydrates of the present invention.
# [6] = system: joint pain; details: oral doses between 1000 and 3000 mg/day (>15 mg/Kg); cited from earlier work
# [7] = system: interstitial cystitis; test: Interstitial cystitis patient (Example 8); format: in vivo, human; details: 100 mg per day of macrodantin and 20 mg per day of feldene, earlier treatment
# Protocol: Additionally, they had taken 200 mg TID of Elmiron to reduce the inflammation in the bladder lining. […] In order to sleep they took Prosed/DS, Ultram, Hydroxyzine HCl, Cardura, Amitriptyline. Sometimes all were taken at some time during the day or night. […] This patient was supplied with the mixed molecular weight preparation of sodium hyaluronate as described in EXAMPLE 1. They were also supplied with a topical preparation containing 1% wt/vol. Sodium hyaluronate at a molecular weight of <30,000 combined with 1% Oil of Wintergreen, 0.5% Spearmint Oil and 0.2% Peppermint Oil. They took 10 mg of the oral preparation 4 times per day. The last dose was taken before going to bed. Additionally, at bedtime, they rubbed their lower abdomen (over the bladder) with the topical preparation.
# [8] = system: polymyositis; test: Polymyositis in the same patient (Example 4); format: in vivo, human; details: 50 mg daily, before hyaluronate
# Protocol: A person suffering from colon cancer had been unable to tolerate their colostomy and demanded that their surgeon remove the colostomy and reconnect their colon. They refused chemotherapy. They were given a formulation of 1% sodium hyaluronate (Collaborative Laboratories, Inc) which was prepared with a mixture of molecular weights of hyaluronate (as described in EXAMPLE 1). When they began taking the hyaluronate preparation, their CEA was 70.1. They have taken the hyaluronate at a dose of 10 mg three times per day mucosally and after 6 months of treatment their CEA has dropped to 4.1. They have taken no other treatments. This patient had also suffered from polymyositis for approximately 15 years. For this condition they were taking 50 mg of Prednisone daily with little relief. […] After 6 months of treatment with hyaluronate, they have been able to reduce their Prednisone to 5 mg every other day. […] The polymyositis that was successfully treated in this example was thought to represent treatment of a disease associated with the adhesion cascade or autoimmune disease.
# [9] = system: anti-coagulant activity; details: cited from earlier work
compound,measurement,setting,value
C[C@]12CCC(=O)C=C1CC[C@@H]1[C@@H]2[C@@H](O)C[C@@]2(C)[C@H]1CC[C@]2(O)C(=O)CO [hydrocortisone],success of earlier treatment of lick granuloma,[1],little success
C[C@]12CCC(=O)C=C1CC[C@@H]1[C@@H]2C(=O)C[C@@]2(C)[C@H]1CC[C@]2(O)C(=O)CO [cortisone],effect of earlier treatment on eczema,[2],no significant effect
same,success of earlier treatment of lick granuloma,[1],little success
COC(=O)C(c1ccccc1)C1CCCCN1 (centres unmarked) [Ritalin],reaction while taking the drug,[3],suffered hallucinations and became even more uncontrollable
same,relief of ADD,[4],little relief
same,side effects,[5],problems with side effects
chondroitin sulfate,time until relief from joint pain,[6],6-9 months
CN1C(C(=O)Nc2ccccn2)=C(O)c2ccccc2S1(=O)=O [feldene],side effects,[7],severe side effects
C[C@]12C=CC(=O)C=C1CC[C@@H]1[C@@H]2C(=O)C[C@@]2(C)[C@H]1CC[C@]2(O)C(=O)CO [Prednisone],relief of polymyositis,[8],little relief
low molecular weight heparin,anti-coagulant activity,[9],free of anti-coagulant activity
O=C1CN(/N=C/c2ccc([N+](=O)[O-])o2)C(=O)N1 [macrodantin],side effects,[7],severe side effects
